From ChEMBL document CHEMBL3603745, “Synthesis of ciprofloxacin dimers for evaluation of bacterial permeability in atypical chemical space” (Bioorg Med Chem Lett, 2015) come the findings set out here.

SMILES strings stand for the structures. Values after ≈ are worked out from the molar mass of the structure shown. A value given as a limit tells only on which side of the number the result lay.

For test [1], the system named is Pseudomonas aeruginosa. The test is described as follows: Antibacterial activity against mexX, mexB deficient Pseudomonas aeruginosa NB52023-CDK006 harboring gyrAT83I and parC S87L by broth microdilution method. The test is classed as functional.
Test [2] relates to Pseudomonas aeruginosa. The test is described as follows: Antibacterial activity against wild type Pseudomonas aeruginosa PAO1 by broth microdilution method. The test is classed as functional. On the technique in general: In broth dilution the organism is exposed to a series of concentrations in liquid medium.
For test [3], the system named is Pseudomonas aeruginosa. Nature of the test: Antibacterial activity against Pseudomonas aeruginosa K1542 deficient with mexX, mexB by broth microdilution method. The test is classed as functional.
Test [4] has as its system Staphylococcus aureus. The test is described as follows: Antibacterial activity against wild type methicillin-susceptible Staphylococcus aureus ATCC 49951 by broth microdilution method. The test is classed as functional.
Test [5] in a line: Inhibition of Escherichia coli recombinant gyrase A2B2 assessed as reduction of pHOT-1 supercoiling after 90 mins.
The subject of test [6] is Escherichia coli. The test is described as follows: Antibacterial activity against fluoroquinolone-resistant Escherichia coli CH10 harboring gyrA S83L D87N, parC S80I E84G, AcrA+ by broth microdilution method. The format is functional.
Test [7] deals with Staphylococcus aureus. Nature of the test: Antibacterial activity against fluoroquinolone-resistant Staphylococcus aureus NB01006-AVR005 harboring gyrA S84L, parC S80F, parE E471K by broth microdilution method. The format is functional.
Test [8] concerns Pseudomonas aeruginosa. The test is described as follows: Antibacterial activity against mexX, mexB deficient Pseudomonas aeruginosa NB52023-CDK005 harboring gyrAT83I by broth microdilution method. The test is classed as functional.
The subject of test [9] is Escherichia coli. Nature of the test: Antibacterial activity against wild type Escherichia coli ATCC 25922 by broth microdilution method. The test is classed as functional.
Test [10] has as its system Escherichia coli. The test is described as follows: Antibacterial activity against Escherichia coli imp-4213 by broth microdilution method. The format is functional.
The subject of test [11] is Escherichia coli. The test is described as follows: Antibacterial activity against tolC-deficient Escherichia coli JW5503-1 by broth microdilution method. The format is functional.
In test [12] the test system is Staphylococcus aureus. Nature of the test: Antibacterial activity against wild type Staphylococcus aureus ATCC 29213 by broth microdilution method. The test is classed as functional.
Test [13] deals with Escherichia coli. The test is described as follows: Antibacterial activity against tolC-deficient Escherichia coli NB27005-CDY0039 expressing gyrA S83L […], parC S80I mutant by broth microdilution method. The format is functional.
Test [14] deals with Escherichia coli. Nature of the test: Antibacterial activity against wild type Escherichia coli BW5328/pAH69 by broth microdilution method. The format is functional.
Test [15] relates to Escherichia coli. The test is described as follows: Antibacterial activity against wild type Escherichia coli MC4100 by broth microdilution method. The format is functional.

For orientation: MIC means the least concentration at which growth counts as inhibited. Read a high MIC as weaker potency. What is called IC50 is the point on the concentration scale where inhibition reaches its midpoint. Turning to `CN(CC(=O)N1CCN(c2cc3c(cc2F)c(=O)c(C(=O)O)cn3C2CC2)CC1)CC(=O)N1CCN(c2cc3c(cc2F)c(=O)c(C(=O)O)cn3C2CC2)CC1`, the MIC in [1] is 32 µg/mL (≈ 41.4 µM); in [2], 2 µg/mL (≈ 2.58 µM); in test [3], 0.5 µg/mL (≈ 0.646 µM); in test [4] it was 2 µg/mL (≈ 2.58 µM); in [6], > 32 µg/mL; in [7], > 32 µg/mL. Further, the minimal inhibitory concentration (MIC) was 8 µg/mL (≈ 10.3 µM) in test [8]; 0.25 µg/mL (≈ 0.323 µM) in test [9]; 0.06 µg/mL (≈ 0.0775 µM) in test [10]; 0.06 µg/mL (≈ 0.0775 µM) in [11]; 4 µg/mL (≈ 5.17 µM) in [12]; 32 µg/mL (≈ 41.4 µM) in test [13]. Besides, the MIC in [14] and in test [15] was 0.25 µg/mL (≈ 0.323 µM) in each case. In addition, the IC50 in test [5] is 4.37 µM.

Regarding `O=C(CN1CCN(c2cc3c(cc2F)c(=O)c(C(=O)O)cn3C2CC2)CC1)NCCCN1CCN(CCCNC(=O)CN2CCN(c3cc4c(cc3F)c(=O)c(C(=O)O)cn4C3CC3)CC2)CC1`, the MIC in test [1] is > 32 µg/mL; in test [2], > 32 µg/mL; in test [3], > 32 µg/mL; in [4], 8 µg/mL (≈ 8.48 µM); in [6] it was > 32 µg/mL; in [7] it was > 32 µg/mL. The MIC in test [8] is > 32 µg/mL; in test [9], > 32 µg/mL; in [10], 8 µg/mL (≈ 8.48 µM); in test [11], 2 µg/mL (≈ 2.12 µM); in test [12], 32 µg/mL (≈ 33.9 µM); in test [13], > 32 µg/mL. Further, the MIC in test [14] and in test [15] was > 32 µg/mL throughout. Moreover, in test [5], the IC50 was determined as 1.59 µM.

With `O=C(CN1CCN(c2cc3c(cc2F)c(=O)c(C(=O)O)cn3C2CC2)CC1)NCCOCCOCCNC(=O)CN1CCN(c2cc3c(cc2F)c(=O)c(C(=O)O)cn3C2CC2)CC1`, the MIC in test [1] is > 32 µg/mL; in test [2], > 32 µg/mL; in [3], 32 µg/mL (≈ 35.9 µM); in [4], > 32 µg/mL; in test [6], > 32 µg/mL; in test [7] it was > 32 µg/mL. Moreover, the MIC in [8] was > 32 µg/mL; in [9], 32 µg/mL (≈ 35.9 µM); in test [10] it was 8 µg/mL (≈ 8.98 µM); in test [11], 4 µg/mL (≈ 4.49 µM); in test [12], > 32 µg/mL; in test [13], > 32 µg/mL. Also, the MIC in test [14] and in test [15] was 32 µg/mL (≈ 35.9 µM) throughout. Also, the IC50 in test [5] is 1.04 µM.

`O=C(CCN1CCN(c2cc3c(cc2F)c(=O)c(C(=O)O)cn3C2CC2)CC1)NCCOCCNC(=O)CCN1CCN(c2cc3c(cc2F)c(=O)c(C(=O)O)cn3C2CC2)CC1`: the minimum inhibitory concentration (MIC) in test [1], in test [2], in [3], in test [4], in test [6] and in test [7] was > 32 µg/mL in each case. Further, the MIC was > 32 µg/mL in test [8]; 32 µg/mL (≈ 36.6 µM) in test [9]; 8 µg/mL (≈ 9.14 µM) in test [10]; 4 µg/mL (≈ 4.57 µM) in test [11]; > 32 µg/mL in test [12]; > 32 µg/mL in [13]. The MIC in test [14] and in test [15] was 32 µg/mL (≈ 36.6 µM) each time. Also, in test [5], the IC50 is 9.09 µM.

Turning to `O=C(CCN1CCN(c2cc3c(cc2F)c(=O)c(C(=O)O)cn3C2CC2)CC1)NCCOCCOCCNC(=O)CCN1CCN(c2cc3c(cc2F)c(=O)c(C(=O)O)cn3C2CC2)CC1`, the MIC in test [1], in [2], in test [3], in test [4], in test [6] and in test [7] was > 32 µg/mL in each case. Besides, the MIC was > 32 µg/mL in test [8]; 8 µg/mL (≈ 8.71 µM) in test [9]; 4 µg/mL (≈ 4.35 µM) in test [10]; 1 µg/mL (≈ 1.09 µM) in test [11]; > 32 µg/mL in test [12]; > 32 µg/mL in test [13]. Also, the MIC in [14] and in test [15] was 8 µg/mL (≈ 8.71 µM) each time. Further, the half-maximal inhibitory concentration (IC50) in test [5] was found to be 2.14 µM.

As to `O=C(O)c1cn(C2CC2)c2cc(N3CCN(CCOCCOCCN4CCN(c5cc6c(cc5F)c(=O)c(C(=O)O)cn6C5CC5)CC4)CC3)c(F)cc2c1=O`, the MIC was > 32 µg/mL in test [1]; 32 µg/mL (≈ 41.2 µM) in test [2]; 8 µg/mL (≈ 10.3 µM) in [3]; 16 µg/mL (≈ 20.6 µM) in [4]; > 32 µg/mL in [6]; > 32 µg/mL in test [7]. For the same molecule, the MIC is > 32 µg/mL in [8]; 2 µg/mL (≈ 2.57 µM) in test [9]; 0.5 µg/mL (≈ 0.644 µM) in [10]; 0.25 µg/mL (≈ 0.322 µM) in test [11]; 16 µg/mL (≈ 20.6 µM) in test [12]; > 32 µg/mL in [13]. The MIC in [14] and in test [15] was 2 µg/mL (≈ 2.57 µM) throughout. In addition, in test [5], the IC50 is 28.2 µM.

In the case of `O=C(O)c1cn(C2CC2)c2cc(N3CCN(CCOCCOCCOCCN4CCN(c5cc6c(cc5F)c(=O)c(C(=O)O)cn6C5CC5)CC4)CC3)c(F)cc2c1=O`, the MIC is > 32 µg/mL in test [1]; 16 µg/mL (≈ 19.5 µM) in test [2]; 32 µg/mL (≈ 39 µM) in [3]; 8 µg/mL (≈ 9.75 µM) in test [4]; > 32 µg/mL in [6]; > 32 µg/mL in test [7]. Also, the MIC in [8] is 32 µg/mL (≈ 39 µM); in test [9], 1 µg/mL (≈ 1.22 µM); in test [10], 0.25 µg/mL (≈ 0.305 µM); in test [11], 0.125 µg/mL (≈ 0.152 µM); in test [12] it was 16 µg/mL (≈ 19.5 µM); in test [13], > 32 µg/mL. For the same molecule, the MIC in test [14] and in [15] was 1 µg/mL (≈ 1.22 µM) throughout. The 50% inhibitory concentration (IC50) in [5] turned out to be 4.04 µM.

On to `O=C(O)c1cn(C2CC2)c2cc(N3CCN(C(=O)OCCOCCOCCOC(=O)N4CCN(c5cc6c(cc5F)c(=O)c(C(=O)O)cn6C5CC5)CC4)CC3)c(F)cc2c1=O`, for which the MIC in [1] was > 32 µg/mL; in [2], > 32 µg/mL; in test [3] it was 16 µg/mL (≈ 18.5 µM); in test [4] it was 2 µg/mL (≈ 2.31 µM); in test [6], > 32 µg/mL; in [7], > 32 µg/mL. Besides, the MIC in test [8] is > 32 µg/mL; in [9], 16 µg/mL (≈ 18.5 µM); in test [10] it was 0.25 µg/mL (≈ 0.289 µM); in test [11], 0.125 µg/mL (≈ 0.145 µM); in test [12] it was 4 µg/mL (≈ 4.63 µM); in test [13], 32 µg/mL (≈ 37 µM). Besides, the MIC in test [14] and in test [15] was 16 µg/mL (≈ 18.5 µM) in each case. The IC50 in test [5] worked out at 7.25 µM.

For `O=C(O)c1cn(C2CC2)c2cc(N3CCN(CCOCCOCCOCCOCCOCCN4CCN(c5cc6c(cc5F)c(=O)c(C(=O)O)cn6C5CC5)CC4)CC3)c(F)cc2c1=O`, the MIC in test [1] is > 32 µg/mL; in test [2], 32 µg/mL (≈ 35.2 µM); in test [3] it was 8 µg/mL (≈ 8.8 µM); in test [4], 2 µg/mL (≈ 2.2 µM); in [6] it was > 32 µg/mL; in test [7] it was > 32 µg/mL. Besides, the MIC is > 32 µg/mL in test [8]; 2 µg/mL (≈ 2.2 µM) in test [9]; 0.125 µg/mL (≈ 0.138 µM) in test [10]; 0.125 µg/mL (≈ 0.138 µM) in test [11]; 8 µg/mL (≈ 8.8 µM) in test [12]; > 32 µg/mL in [13]. The MIC in test [14] was found to be 2 µg/mL (≈ 2.2 µM); in [15], 4 µg/mL (≈ 4.4 µM). For the same molecule, the IC50 in [5] came to 10 µM.
